What all share (format): cell-based
The target of test [1] is T1, P2X7 receptor (Homo sapiens (Human), UniProt Q99572). As to the kind of experiment: YO-PRO-1 Uptake Assay (large pore form, Bz-ATP stimulated). The conditions noted are these: HEK-293 cells stably transfected with P2X7 receptor; Bz-ATP EC80 (30 μM); 5 μM YO-PRO-1. Put shortly:
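IC50 values derive from percent inhibition versus A438079, using large-pore YO-PRO-1 (5 μM) entry into P2X7-transfected HEK-293 cells. Buffer held 0.3 mM Ca2+ and no Mg2+; after 5 min with test compound, cells were challenged with Bz-ATP at EC80 (30 μM, 3× concentration) and fluorescence recorded 60 min.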

Test [2] has as its target T1, P2X7 receptor. The test can be described thus: human P2X7 channel assay by automated patch-clamp (QPatch 16X). The conditions noted are these: HEK-293 cells expressing P2X7 channels, 100 microM BzATP, held at -80 mV, read-out: hP2X7 (IC50; nM). The method, then:
In order to directly monitor the block of P2X7 channel, an electrophysiological assay was developed and implemented on the QPatch 16X automated electrophysiology instrument.
HEK-293 cells expressing the P2X7 channels were cultured in modified EMEM.
72 hours before experiment, 5 million cells were seeded onto T225 flasks. Just before the experiment cells were washed twice, detached from the flask with trypsin-EDTA, re-suspended in the suspension solution and placed on the QPatch 16x.
The compounds (20 mM in a 100% DMSO) stored at −20° C. were prepared the day of the experiment (a first dilution 1:20 in 100% DMSO to prepare a 1 mM stock solution, then a 1 microM solution in external solution+a serial dilution 1:10).
The standard whole-cell voltage clamp experiments were performed at room temperature. For these experiments the multihole technology was used and the data were sampled at 2 KHz.
The intracellular solution contained (mM) 135 CsF, 10 NaCl, 1 EGTA, 10 HEPES, (pH 7.2 with CsOH) whereas the extracellular contained (mM) 145 NaCl, 4 KCl, 0.5 MgCl2, 1 CaCl2, 10 HEPES, 10 Glc (pH 7.4 with NaOH).
After establishment of the seal and the passage in the whole cell configuration, the cells were held at −80 mV. The P2XR7 current was evoked by applying 100 microM of BzATP alone (4 times) and then in the presence increasing concentrations of the compound under investigation (1, 10, 100 and 1000 nM).
The pre-incubation periods 5 to 8 contain increasing concentrations of the compound of interest (1, 10, 100 and 1000 nM), as illustrated in Figure (application protocol).
The maximal inward current evoked by BzATP in absence or presence of increasing concentrations of the compounds under investigation was measured and normalized.
Y: normalized response, 100% down to 0%, decreasing as X increases.
Log IC50: same log units as X
HillSlope: slope factor or HS, unitless

A further test concerns the target P2X7 receptor (hP2X7) (Homo sapiens (Human), UniProt Q99572). The test can be described thus: Screen Quest Fluo-8 No Wash Calcium Assay (Bz-ATP-induced Ca2+ influx, FLIPR TETRA). The conditions noted are these: HEK-293 cells stably transfected with P2X7 receptor, Fluo-8 calcium, Low Divalent Cation Assay Buffer. Put shortly: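 Read-out is Fluo-8 NW fluorescence recorded over a 5-min kinetic window, reporting Bz-ATP-evoked Ca2+ entry. Cells: HEK-293 stably expressing the P2X7 receptor, dye-loaded for 1 h at room temperature before compound injection.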

T1 sequence (Q99572 whole entry): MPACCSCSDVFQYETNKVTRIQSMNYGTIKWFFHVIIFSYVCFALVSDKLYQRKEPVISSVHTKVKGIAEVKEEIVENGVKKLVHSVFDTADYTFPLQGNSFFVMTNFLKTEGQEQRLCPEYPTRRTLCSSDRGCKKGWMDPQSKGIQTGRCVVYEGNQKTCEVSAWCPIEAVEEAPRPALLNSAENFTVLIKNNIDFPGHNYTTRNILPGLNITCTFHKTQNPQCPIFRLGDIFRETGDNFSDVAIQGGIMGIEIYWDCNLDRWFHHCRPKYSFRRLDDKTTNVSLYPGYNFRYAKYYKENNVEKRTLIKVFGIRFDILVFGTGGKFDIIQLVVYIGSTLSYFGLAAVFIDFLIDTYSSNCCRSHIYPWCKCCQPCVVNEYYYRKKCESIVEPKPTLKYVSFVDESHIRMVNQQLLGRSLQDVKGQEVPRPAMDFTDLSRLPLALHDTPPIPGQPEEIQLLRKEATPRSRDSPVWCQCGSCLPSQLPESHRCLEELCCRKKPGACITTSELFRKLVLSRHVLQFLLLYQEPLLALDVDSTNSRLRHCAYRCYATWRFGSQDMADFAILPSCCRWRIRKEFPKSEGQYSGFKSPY
Chain of P2X7 receptor (hP2X7) (Q99572 whole entry): as above

For the compound `Cc1ncoc1C(CNC(=O)c1ccc(-c2ncc(F)cn2)cc1Cl)N1CCc2ccccc2C1` (stereo not drawn) [Compound 57, 2-chloro-4-(5-fluoropyrimidin-2-yl)-N-[2-(4-methyl-1,3-oxazol-5-yl)-2-(1,2,3,4-tetrahydroisoquinolin-2-yl)ethyl]benzamide], the values for the IC50 on P2X7 receptor [1], on P2X7 receptor [2] and on P2X7 receptor (hP2X7) were 197 nM, 71 nM and 214 nM, respectively.

With `Cc1ncsc1C(CNC(=O)c1c(F)cccc1Cl)N1CCC(OCc2ccccc2)CC1` (stereo not drawn) [Compound 59, N-{2-[4-(benzyloxy)piperidin-1-yl]-2-(4-methyl-1,3-thiazol-5-yl)ethyl}-2-chloro-6-fluorobenzamide], the IC50 was determined as 55 nM on P2X7 receptor [1], 69.2 nM on P2X7 receptor [2] and 242 nM at P2X7 receptor (hP2X7).

On to `Cc1ncsc1C(CNC(=O)c1c(F)cccc1Cl)N1CCC(Oc2ccccc2)CC1` (stereo not drawn) [Compound 60, 2-chloro-6-fluoro-N-[2-(4-methyl-1,3-thiazol-5-yl)-2-(4-phenoxypiperidin-1-yl)ethyl]benzamide], for which the IC50 against P2X7 receptor [1] is 79 nM; on P2X7 receptor [2] it was 58.9 nM; on P2X7 receptor (hP2X7), 188 nM.

With `Cc1ncsc1C(CNC(=O)c1cc(-c2ncc(F)cn2)ccc1Cl)N1CCCC(F)(F)C1` (stereo not drawn) [Compound 66, 2-chloro-N-[2-(3,3-difluoropiperidin-1-yl)-2-(4-methyl-1,3-thiazol-5-yl)ethyl]-5-(5-fluoropyrimidin-2-yl)benzamide], the IC50 was determined as 58 nM against P2X7 receptor [1], 82.5 nM at P2X7 receptor [2] and 22 nM at P2X7 receptor (hP2X7).

With `O=C(NCC(c1scnc1C(F)(F)F)N1CCC(F)(F)CC1)c1c(F)cccc1Cl` (stereo not drawn) [Compound 67, 2-chloro-N-[2-(4,4-difluoropiperidin-1-yl)-2-[4-(trifluoromethyl)-1,3-thiazol-5-yl]ethyl]-6-fluorobenzamide], the IC50 at P2X7 receptor [1] was found to be 287 nM; at P2X7 receptor [2] it was 117 nM; on P2X7 receptor (hP2X7) it was 108 nM.

For the compound `O=C(NCC(c1scnc1C(F)(F)F)N1CCC(F)(F)CC1)c1cc(-c2ncc(F)cn2)ccc1Cl` (stereo not drawn) [Compound 68], the IC50 on P2X7 receptor [1] came out at 181 nM; at P2X7 receptor [2] it was 63.1 nM; on P2X7 receptor (hP2X7), 103 nM.

Turning to `Cc1ncsc1C(CNC(=O)c1cc(-c2ncc(F)cn2)ccc1F)N1CCC(F)(F)CC1` (stereo not drawn) [Compound 70, N-[2-(4,4-difluoropiperidin-1-yl)-2-(4-methyl-1,3-thiazol-5-yl)ethyl]-2-fluoro-5-(5-fluoropyrimidin-2-yl)benzamide], the IC50 on P2X7 receptor [1] was found to be 183 nM; at P2X7 receptor [2] it was 58.4 nM; on P2X7 receptor (hP2X7), 32 nM.

Regarding `Cc1ncsc1C(CNC(=O)c1cc(-c2cnccn2)ccc1Cl)N1CCC(F)(F)CC1` (stereo not drawn) [Compound 72, 2-chloro-N-[2-(4,4-difluoropiperidin-1-yl)-2-(4-methyl-1,3-thiazol-5-yl)ethyl]-5-(pyrazin-2-yl)benzamide], the IC50 at P2X7 receptor [1] amounted to 60 nM; on P2X7 receptor [2] it was 78.1 nM; on P2X7 receptor (hP2X7), 30 nM.

For the compound `Cc1cccc(-c2ccc(Cl)c(C(=O)NCC(c3scnc3C)N3CCC(F)(F)CC3)c2)n1` (stereo not drawn) [Compound 74, 2-chloro-N-[2-(4,4-difluoropiperidin-1-yl)-2-(4-methyl-1,3-thiazol-5-yl)ethyl]-5-(6-methylpyridin-2-yl)benzamide], the IC50 stood at 87 nM at P2X7 receptor [1], 65.2 nM at P2X7 receptor [2] and 55 nM on P2X7 receptor (hP2X7).

On to `O=C(NCC(c1cnc(C2CC2)s1)N1CCC(F)(F)CC1)c1c(F)cccc1Cl` (stereo not drawn) [Compound 88, 2-chloro-N-[2-(2-cyclopropyl-1,3-thiazol-5-yl)-2-(4,4-difluoropiperidin-1-yl)ethyl]-6-fluorobenzamide], for which the IC50 at P2X7 receptor [1] came out at 28 nM; on P2X7 receptor [2], 52.1 nM; on P2X7 receptor (hP2X7), 36 nM.

Take `O=C(NCC(c1scnc1C(F)F)N1CCC(F)(F)CC1)c1cc(-c2ncc(F)cn2)ccc1Cl` (stereo not drawn) [Compound 102, 2-chloro-N-{2-[4-(difluoromethyl)-1,3-thiazol-5-yl]-2-(4,4-difluoropiperidin-1-yl)ethyl}-5-(5-fluoropyrimidin-2-yl)benzamide]: the values for the IC50 on P2X7 receptor [1], at P2X7 receptor [2] and at P2X7 receptor (hP2X7) were 34 nM, 57.1 nM and 60 nM, respectively.

Values taken from patent US9718812B2, “Substituted thiazole or oxazole P2X7 receptor antagonists” (Axxam S.P.A., priority 2014, dated 2017).
